Assay results reported in US20260191852A1, “COMBINATION OF SUBSTITUTED 2,4 DIAMINO-QUINOLINE COMPOUNDS AND MEK INHIBITORS FOR USE IN THE TREATMENT OF LIVER CANCERS” (GENFIT, priority 2022, published 2026).
Where a name gives a salt, the structure may show the parent alone. Read-outs that look alike come from different tables or passages of the source.

Key:
[1] = test system: intrahepatic cholangiocarcinoma cell line HuCCT1 (KRAS G12D)
Experimental: (§1) Cell culture: HuCCT1 cell line harboring KRAS G12D mutation (JCRB Cell Bank #JCRB0425) was maintained in RPMI medium (Dutscher #L0498-500) containing 1% penicillin streptomycin (Dutscher #P06-07100) and 10% fetal bovine serum (Dutscher #SV30160.03C) and were cultured at 37° C. with 5% CO2 in humidified cells incubator.
(§2) HuCCT1 cells were plated at 4.10^3 cells per well in Greiner Bio-one pClear® P96 well plates (Dutscher #655098) with 80 μL of culture media. […] Cell viability was assessed 72 hours post molecular treatment by CellTiter-Glo® luminescent cell viability assay (Promega #G7573) according to the manufacturer protocol and using an Infinity F200 Pro luminometer (Tecan). […] IC50 values were determined as the dose of compound required to reduce luminescent values to 50% of the reference signal obtained for untreated cell cultures. Raw data were analyzed using GraphPad Prism Software v9.4 (GraphPad Software, Inc. La Jolla, CA). For all experiments, analyzed data are shown as mean of triplicate and four independent experiments.

[2] = test system: intrahepatic cholangiocarcinoma cell line HuCCT1 (KRAS G12D); test: HuCCT1 cell viability assay (CellTiter-Glo), single compounds, 72 hours; details: for IC50: Homo sapiens, HuCCT-1, 72 h, read-out: Cell Viability assay IC50
Experimental: as §1, §2

[3] = test system: intrahepatic cholangiocarcinoma cell line HuCCT1 (KRAS G12D); test: Combination effect of binary drug-drug associations on HuCCT1 cell viability, Loewe additivity model (SynergyFinder); assay type: cell-based; details: growth inhibition of HuCCT1
Experimental: The HuCCT1 cell viability assay with binary drug-drug association was performed as described in example 1. The drug-drug binary associations of compounds 2-2+Trametinib and HCQ+Trametinib were tested in a checkerboard fashion in Greiner Bio-one pClear® 96-well plates (Dutscher #655098). The concentration ranges were selected nearby and surrounding the IC50 values of each individual compound. Compound 2-2 in combination with Trametinib was tested at 1.28 μM, 1.6 μM, 2.0 μM, 2.5 μM and 3.125 μM. HCQ [747-36-4] in combination with Trametinib was tested at 15 μM, 20 μM, 30 μM, 45 μM, 60 μM. […] The combination effects of both binary drug-drug association compound 2-2+Trametinib and HCQ+Trametinib were analyzed with two softwares: MacSynergy™ II (1) and SynergyFinder. […]
The combination effects of the drug-drug associations of compound 2-2+Trametinib (Table 2) and HCQ+Trametinib (Table 3) were evaluated according to the Loewe additivity model using SynergyFinder for their respective capacities to inhibit the growth of intra-hepatic cholangiocarcinoma cell line HuCCT1.
The HuCCT1 cell viability assay with binary drug-drug association was performed as described in example 1. […] The combination effects of both binary drug-drug association compound 2-2+Cobimetinib and HCQ+Cobimetinib were analyzed with two softwares: MacSynergy™ II (1) and SynergyFinder (2). […]

[4] = test system: intrahepatic cholangiocarcinoma cell line HuCCT1 (KRAS G12D); test: Combination effect of binary drug-drug associations on HuCCT1 cell viability, Bliss independence model (MacSynergy II); assay type: cell-based; details: growth inhibition of HuCCT1
Experimental: The HuCCT1 cell viability assay with binary drug-drug association was performed as described in example 1. The drug-drug binary associations of compounds 2-2+Trametinib and HCQ+Trametinib were tested in a checkerboard fashion in Greiner Bio-one pClear® 96-well plates (Dutscher #655098). The concentration ranges were selected nearby and surrounding the IC50 values of each individual compound. Compound 2-2 in combination with Trametinib was tested at 1.28 μM, 1.6 μM, 2.0 μM, 2.5 μM and 3.125 μM. HCQ [747-36-4] in combination with Trametinib was tested at 15 μM, 20 μM, 30 μM, 45 μM, 60 μM. Trametinib (Selleckchem #S2673, [871700-17-3]) in combination with compound 2-2 or in combination with HCQ was tested in both cases at 0.005 μM, 0.03 μM, 6.0 μM, 15 μM, 30 μM, 60 μM, 90 μM. The combination effects of both binary drug-drug association compound 2-2+Trametinib and HCQ+Trametinib were analyzed with two softwares: MacSynergy™ II (1) and SynergyFinder. (2) MacSynergy™ II was used to analyze the combination effect according to the Bliss independence model which assumes probabilistic statistical independence between the combined compounds.(3) The main assumption of the Bliss independence principle is that two or more combined drugs act independently from each other with distinct mode of action. SynergyFinder was used to analyze the combination effect according to the Loewe additivity model which is based on its principle of a sham drug-drug combination which assumes no interaction when a compound is combined with itself.(4)
The combination effects of the drug-drug associations of compound 2-2+Trametinib and hydroxychloroquine+Trametinib were evaluated according to the Bliss independence model using MacSynergy™ II for their respective capacities to inhibit the growth of intrahepatic cholangiocarcinoma cell line HuCCT1 (Table 4).
The HuCCT1 cell viability assay with binary drug-drug association was performed as described in example 1. The binary drug-drug associations of compounds 2-2+Cobimetinib and HCQ+Cobimetinib were tested in a checkerboard fashion in Greiner Bio-one pClear® 96-well plates (Dutscher #655098). The concentration ranges were selected nearby and surrounding the IC50 values of each individual compound. Compound 2-2 in combination with Cobimetinib was tested at 1.28 μM, 1.6 μM, 2.0 μM, 2.5 μM and 3.125 μM. HCQ [747-36-4] in combination with Cobimetinib was tested at 15 μM, 20 μM, 30 μM, 45 μM, 60 μM. Cobimetinib (Selleckchem #S8041, [934660-93-2]) in combination with compound 2-2 or in combination with HCQ was tested in both cases at 0.10 μM, 1.0 μM, 10 μM, 30 μM, 60 μM, 80 μM, 100 μM. The combination effects of both binary drug-drug association compound 2-2+Cobimetinib and HCQ+Cobimetinib were analyzed with two softwares: MacSynergy™ II (1) and SynergyFinder (2). […]
The combination effects of the binary drug-drug associations of compound 2-2+Cobimetinib and hydroxychloroquine+Cobimetinib were evaluated according to the Bliss independence model using MacSynergy™ II for their respective capacities to inhibit the growth of intrahepatic cholangiocarcinoma cell line HuCCT1 (Table 7).

Row | SMILES | cytotoxic activity against HuCCT1 [1] | IC50 [2] [nM] | combination effect when associated with Cobimetinib, Loewe model [3] | combination effect when associated with Cobimetinib, Bliss model [4] | combination effect when associated with Trametinib [4] | combination effect when associated with a MEK inhibitor (e.g., Trametinib, Cobimetinib), Bliss independence model [4] | cytotoxic activity against HuCCT1 ([2]; HuCCT1, 72 hours)
1 | O=C(c1ccc(F)c(F)c1Nc1ccc(I)cc1F)N1CC(O)([C@@H]2CCCCN2)C1 [Cobimetinib] | dose-response cytotoxic activity | 1200 ± 800 | – | – | – | – | –
2 | CC(C)(C)NC1CCN(c2cc(NCc3ccc(Cl)cc3)nc3ccccc23)CC1 [Compound 2-2, 2-(4-chlorobenzylamino)-4-(4-tert-butylaminopiperidin-1-yl)-quinoline] | – | 2200 ± 200 | overall additive effect | significant synergy combination effect | significant synergy combination effect | significant synergy combination effect | dose-response cytotoxic activity
3 | CCN(CCO)CCCC(C)Nc1ccnc2cc(Cl)ccc12 (stereo not drawn) [Hydroxychloroquine, hydroxychloroquine sulfate] | dose-response cytotoxic activity | 27200 ± 1200 | overall additive effect | minor synergy without significant impact in vivo | only an additive effect | – | –
4 | CC(=O)Nc1cccc(-n2c(=O)n(C3CC3)c(=O)c3c(Nc4ccc(I)cc4F)n(C)c(=O)c(C)c32)c1 [Trametinib] | dose-response cytotoxic activity | 310 ± 260 | – | – | – | – | –
